test system: HL60 cells; assay: Inhibition effect of HL60 cell line growth (MTT, 3 days); type: cell-based; details: Homo sapiens, HL-60, 72 h; HL60 cells, 3 days culture, MTT, absorbance 570 nm; read-out: HL60 Growth Inhibition
Description: 1. Inhibition Effect of HL60 Cell Line Growth
A 10% FBS-contained RPMI1640 badge was used for culturing HL60 cells. The test substance was prepared by dissolving in DMSO to a concentration of 10 mg/ml, and continuously diluting with PBS to a final concentration of 100 μg/ml to 0.03 μg/ml. In a 96-well microplate, 180 μl of the badge containing 6.0×10^4 cells/ml of cells and 20 μl of continuously diluted test substance were added. The mixture was cultured at 37° C. with 5% CO2 atmosphere for 3 days. After completion of the cultivation, 50 μl of a solution of 1.25 mg/ml MTT (3-(4,5-dimethylthiazol-2-yl)-2,5-diphenyltetrazolium bromide) dissolved in PBS was added to all wells, and the resulting mixture was reacted at 37° C. for 3 hours. Thus formed formazan crystals were dissolved in 150 μl of DMSO, and an absorbance was measured at 570 nm.

| IC50 [nM] | SMILES |
| --- | --- |
| 100 | COC(=O)c1ccc(-c2nccs2)cc1C(=O)c1cc(OC)c(OC)c(OC)c1 [Compound 374, 4-(thiazol-2-yl)-2-(3,4,5-trimethoxybenzoyl)benzoic acid methyl ester] |
| 40 | COc1cc(C(=O)c2cc(-c3nccs3)ccc2-c2cnco2)cc(OC)c1OC [Compound 375, (2-(oxazol-5-yl)-5-(thiazol-2-yl)phenyl)(3,4,5-trimethoxyphenyl)methanone] |
| 110 | COc1cc(C(=O)c2cc(-c3ccco3)ccc2-n2ccnn2)cc(OC)c1OC [Compound 379, (5-(furan-2-yl)-2-(1H-1,2,3,-triazol-1-yl)phenyl)(3,4,5-trimethoxyphenyl)methanone] |
| 110 | COc1cc(C(=O)c2cc(-c3ccccn3)ccc2NCCCO)cc(OC)c1OC [Compound 380, (2-(3-hydroxypropylamino)-5-(pyridin-2-yl)phenyl)(3,4,5-trimethoxyphenyl)methanone] |
| 120 | COc1cc(C(=O)c2cc(-c3cccs3)ccc2-n2cncn2)cc(OC)c1OC [Compound 391, (5-(thiophen-2-yl)-2-(1H-1,2,4,-triazol-1-yl)phenyl)(3,4,5-trimethoxyphenyl)methanone] |
| 110 | COc1cc(C(=S)c2cc(-c3ccco3)ccc2-n2cncn2)cc(OC)c1OC [Compound 399, (5-(furan-2-yl)-2-(1H-1,2,4-triazol-1-yl)phenyl)(3,4,5-trimethoxyphenyl)methanethione] |
| 30 | COc1cc(C(=O)c2cc(-c3nccs3)ccc2-n2cnnn2)cc(OC)c1OC [Compound 401, (2-(1H-tetrazol-1-yl)-5-(thiazol-2-yl)phenyl)(3,4,5-trimethoxyphenyl)methanone] |
| 30 | COc1cc(C(=O)c2cc(-c3ccc[nH]3)ccc2-n2cncn2)cc(OC)c1OC [Compound 409, (5-(1H-pyrrole-2-yl)-2-(1H-1,2,4-triazol-1-yl)phenyl)(3,4,5-trimethoxyphenyl)methanone] |
| 100 | COc1cc(C(=O)c2cc(-c3nccs3)cnc2-n2cncn2)cc(OC)c1OC [Compound 410, (5-(thiazol-2-yl)-2-(1H-1,2,4-triazol-1-yl)pyridin-3-yl)(3,4,5-trimethoxyphenyl)methanone] |
| 80 | COc1cc(C(=O)c2ccc(-c3ccco3)cc2-n2cncn2)cc(OC)c1OC [Compound 443, (4-(furan-2-yl)-2-(1H-1,2,4-triazol-1-yl)phenyl)(3,4,5-trimethoxyphenyl)methanone] |
| 170 | O=C(c1ccc(-c2ccco2)cc1-n1cncn1)c1c(F)c(F)c(F)c(F)c1F [Compound 446, (4-(furan-2-yl)-2-(1H-1,2,4,-triazol-1-yl)phenyl)(pentafluorophenyl)methanone] |
| 3100 | COc1cc(C(=O)c2ccc(-c3cncnc3)cc2-n2cncn2)cc(OC)c1OC [Compound 455, (4-(pyrimidin-5-yl)-2-(1H-1,2,4,-triazol-1-yl)phenyl)(3,4,5-trimethoxyphenyl)methanone] |
| 11600 | COc1cc(C(=O)c2ccc(-c3ccccc3O)cc2F)cc(OC)c1OC [Compound 457, (2′-hydroxy-3-(fluoro)biphenyl-4-yl)(3,4,5-trimethoxyphenyl)methanone] |
| 3180 | COc1cc(C(=O)c2ccc(-c3ccsc3)cc2F)cc(OC)c1OC [Compound 458, (2-fluoro-4-(thiophen-3-yl)phenyl)(3,4,5-trimethoxyphenyl)methanone] |
| 33 | COc1cc(C(=O)c2ccc(-c3ccsc3)cc2-n2cncn2)cc(OC)c1OC [Compound 462, (4-(thiophen-3-yl)-2-(1H-1,2,4,-triazol-1-yl)phenyl)(3,4,5-trimethoxyphenyl)methanone] |
| 90 | COc1cc(C(=O)c2ccc(-c3nccs3)cc2-n2cncn2)cc(OC)c1OC [Compound 464, (4-(thiazol-2-yl)-2-(1H-1,2,4-triazol-1-yl)phenyl)(3,4,5-trimethoxyphenyl)methanone] |
| 25 | COc1cc(C(=O)c2ccc(-c3cccc(NS(C)(=O)=O)c3)cc2-n2cncn2)cc(OC)c1OC [Compound 476, N-(3′-[1,2,4]triazol-1-yl-4′-(3,4,5-trimethoxybenzoyl)biphenyl-3-yl)methanesulfonamide] |

The next lines start with the molecule.

| SMILES | IC50 [nM] |
| --- | --- |
| COc1cc(C(=O)c2cc(-c3ccco3)ccc2NCCO)cc(OC)c1OC [Compound 323, (5-(furan-2-yl)-2-(2-hydroxyethylamino)phenyl)(3,4,5-trimethoxyphenyl)methanone] | 170 |
| COc1cc(C(=O)c2cc(-c3ccco3)ccc2F)cc(OC)c1OC [Compound 327, (2-fluoro-5-(furan-2-yl)phenyl)(3,4,5-trimethoxyphenyl)methanone] | 90 |
| COc1cc(C(=O)c2cc(-c3ccccn3)ccc2NS(C)(=O)=O)cc(OC)c1OC [Compound 335, N-(4-(pyridin-2-yl)-2-(3,4,5-trimethoxybenzoyl)phenyl)methanesulfonamide] | 220 |
| COc1cc(C(=O)c2cc(-c3cccc(N)c3)ccc2N)cc(OC)c1OC [Compound 337, (4,5′-diaminophenyl-3-yl)(3,4,5-trimethoxyphenyl)methanone] | 190 |
| COc1cc(C(=O)c2cc(-c3ccco3)ccc2NCCCO)cc(OC)c1OC [Compound 341, (5-(furan-2-yl)-2-(3-hydroxypropylamino)phenyl)(3,4,5-trimethoxyphenyl)methanone] | 110 |
| COc1cc(C(=O)c2cc(-c3ccccn3)ccc2-n2cncn2)cc(OC)c1OC [Compound 346, (5-(pyridin-2-yl)-2-(1H-1,2,4-triazol-1-yl)phenyl)(3,4,5-trimethoxyphenyl)methanone] | 100 |
| COc1cc(C(=O)c2cc(-c3nccs3)ccc2-n2cncn2)cc(OC)c1OC [Compound 347, (5-(thiazol-2-yl)-2-(1H-1,2,4-triazol-1-yl)phenyl)(3,4,5-trimethoxyphenyl)methanone] | 30 |
| COc1cc(C(=O)c2cc(-c3nccs3)ccc2NCCCO)cc(OC)c1OC [Compound 348, (2-(3-hydroxypropylamino)-5-(thiazol-2-yl)phenyl)(3,4,5-trimethoxyphenyl)methanone] | 100 |
| COc1cc(C(=O)c2cc(-c3ccco3)ccc2-n2ccnc2)cc(OC)c1OC [Compound 354, (5-(furan-2-yl)-2-(1H-imidazol-1-yl)phenyl)(3,4,5-trimethoxyphenyl)methanone] | 110 |
| COc1cc(C(=O)c2cc(-c3ncco3)ccc2-n2cncn2)cc(OC)c1OC [Compound 359, (5-(oxazol-2-yl)-2-(H-1,2,4-triazol-1-yl)phenyl)(3,4,5-trimethoxyphenyl)methanone] | 100 |
| COc1cc(C(=O)c2cc(-c3ccc[nH]3)ccc2NCCCO)cc(OC)c1OC [Compound 363, (2-(3-hydroxypropylamino)-5-(1H-pyrrole-2-yl)phenyl)(3,4,5-trimethoxyphenyl)methanone] | 110 |
| COc1cc(C(=O)c2cc(-c3nccs3)ccc2-c2cncnc2)cc(OC)c1OC [Compound 365, (2-(pyrimidin-5-yl)-5-(thiazol-2-yl)phenyl)(3,4,5-trimethoxyphenyl)methanone] | 70 |
| COc1cc(C(=O)c2cc(-c3nccs3)ccc2C(O)CO)cc(OC)c1OC (stereo not drawn) [Compound 372, (2-(1,2-dihydroxyethyl)-5-(thiazol-2-yl)phenyl)(3,4,5-trimethoxyphenyl)methanone] | 110 |

Source: patent publication US8053439B2, “Benzophenone derivatives useful for inhibiting formation of microtubule” (Chong Kun Dang Pharmaceutical Corp., priority 2006, dated 2011)
